Patent US11147272B2, “Pyridone compounds and agricultural and horticultural fungicides comprising the same as active ingredients” (MITSUI CHEMICALS AGRO, INC., priority 2017, dated 2021)

Legend:
Magnaporthe grisea = assay: whole plant or invertebrate; format: in vivo; conditions: for Test A control value class: Blast on rice, class of control value; for Test A control value: 250 ppm drug solution sprayed on test plant
[1] = tested on: Blumeria graminis f. sp. hordei; assay: Test Example D: Powdery mildew on barley; conditions: Powdery mildew on barley; class of control value
[2] = tested on: Colletotrichum orbiculare; assay: Test Example H: Anthracnose on cucumber; conditions: for Test H control value class: Anthracnose on cucumber (Sagami Hanjiro), 250 ppm spray, 2.5 ml/pot, assessed 6 to 10 days after inoculation; for Test H control value: 250 ppm drug solution sprayed (2.5 ml/pot), cucumber Sagami Hanjiro, 6 to 10 days after inoculation
Phytophthora infestans = assay: whole plant or invertebrate; format: in vivo; conditions: for Test F control value class: Late blight on tomato, class of control value; for Test F control value: 250 ppm drug solution sprayed on test plant
Botrytis cinerea = assay: Test Example B: Gray mold on tomato; conditions: for Test B control value class: Gray mold on tomato, class of control value
Experimental: Seeds of a test plant (tomato variety: Oogata Fukuju) were planted and cultivated until three to five first leaves (true leaves) appeared. In the test, the inventive compounds were dissolved into dimethyl sulfoxide-methanol mixture solution (volume ratio: 9/1), and the resultant solutions were diluted with well water to a concentration of 250 ppm to obtain the drug solutions. The drug solutions were sprayed to the test plant (2.5 ml/pot). After the drug solutions dried, a conidial suspension (4-8×10^5 conidia/ml) of Botrytis cinerea was inoculated to the plant by spraying. After the inoculation, the plant was kept in a mist chamber at room temperature of 20 to 23° C. for about 48 hours to promote the onset of disease. The degrees of disease development were investigated 2 to 3 days after the inoculation, and the effectiveness of the drug solutions was evaluated.
In Test Examples described above, the degrees of disease development were evaluated in increments of 0.05 from 0 (as no incidence of disease) to 3 (as the degree of disease development in an untreated plant group). Further, control values were calculated using the following equation based on the degree of disease development.
n=Degree of disease development in each treated group
In the table, H: more than 50% control value, L: 50% or less control value, and nt: not tested.

Puccinia recondita = assay: Test Example E: Brown rust on wheat; format: in vivo; conditions: for Test E control value class: Brown rust on wheat, class of control value
Plasmopara viticola = assay: Test Example G: Downy mildew on vine; conditions: for Test G control value class: Downy mildew on vine (Neomuscat), 250 ppm spray, 2.5 ml/pot, assessed 7 to 10 days after inoculation; for Test G control value: 250 ppm drug solution sprayed (2.5 ml/pot), grape Neomuscat, 7 to 10 days after inoculation
Alternaia brassicicola = assay: Test Example C: Alternaria sooty spot on cabbage; format: in vivo; conditions: for Test C control value class: Alternaria sooty spot on cabbage, class of control value; for Test C control value: 250 ppm drug solution sprayed on test plant
Source text: Seeds of a test plant (cabbage variety: Shikidori) were planted and cultivated until the cotyledons extended.
<Control Value> Control value=100{1−(n/3)}

[3] = 250 ppm drug solution sprayed on test plant

SMILES | Test A control value class (Magnaporthe grisea) | Test D control value class [1] | Test H control value class [2] | Test F control value class (Phytophthora infestans) | Test B control value class (Botrytis cinerea) | Test E control value class (Puccinia recondita) | Test G control value class (Plasmopara viticola) | Test C control value class (Alternaia brassicicola) | Test A control value (Magnaporthe grisea) | Test H control value [2] | Test F control value (Phytophthora infestans) | Test G control value (Plasmopara viticola) | Test C control value (Alternaia brassicicola) | Test B control value (Botrytis cinerea; [3]) | Test E control value (Puccinia recondita; [3])
CCn1c(-c2c(F)cc(F)cc2F)c(C(C)(O)C(C)C)cc(Cl)c1=O (racemic) [compound 106] | H (more than 50% control value) | H (more than 50% control value) | H (more than 50% control value) | H (more than 50% control value) | H (more than 50% control value) | H (more than 50% control value) | H (more than 50% control value) | H (more than 50% control value) | – | – | – | – | – | – | –
CCn1c(-c2c(F)cc(F)cc2F)c(C(C)(OC)C(C)C)cc(Cl)c1=O (racemic) [compound 107] | H (more than 50% control value) | H (more than 50% control value) | H (more than 50% control value) | L (50% or less control value) | H (more than 50% control value) | H (more than 50% control value) | H (more than 50% control value) | H (more than 50% control value) | – | – | – | – | – | – | –
CCn1c(-c2c(F)cc(OC)cc2F)c(C(C)(O)C(C)C)cc(Cl)c1=O (racemic) [compound 108] | H (more than 50% control value) | H (more than 50% control value) | H (more than 50% control value) | L (50% or less control value) | H (more than 50% control value) | H (more than 50% control value) | H (more than 50% control value) | H (more than 50% control value) | – | – | – | – | – | – | –
CCn1c(-c2c(F)cc(OC)cc2F)c(C(C)(OC)C(C)C)cc(Cl)c1=O (racemic) [compound 110] | H (more than 50% control value) | H (more than 50% control value) | H (more than 50% control value) | L (50% or less control value) | H (more than 50% control value) | H (more than 50% control value) | H (more than 50% control value) | H (more than 50% control value) | – | – | – | – | – | – | –
CCn1c(-c2c(F)cc(F)cc2F)c(C(O)C(C)(C)C)cc(Cl)c1=O (racemic) [compound 163] | H (more than 50% control value) | H (more than 50% control value) | H (more than 50% control value) | L (50% or less control value) | H (more than 50% control value) | H (more than 50% control value) | H (more than 50% control value) | H (more than 50% control value) | – | – | – | – | – | – | –
CCn1c(-c2c(F)cc(F)cc2F)c(C(C)(CC(C)C)OC)cc(Cl)c1=O (racemic) [compound 164] | H (more than 50% control value) | H (more than 50% control value) | L (50% or less control value) | L (50% or less control value) | H (more than 50% control value) | H (more than 50% control value) | H (more than 50% control value) | H (more than 50% control value) | – | – | – | – | – | – | –
CCn1c(-c2c(F)cc(OC)cc2F)c(C(C)(CC(C)C)OC)cc(Cl)c1=O (racemic) [compound 165] | H (more than 50% control value) | H (more than 50% control value) | H (more than 50% control value) | L (50% or less control value) | H (more than 50% control value) | H (more than 50% control value) | H (more than 50% control value) | H (more than 50% control value) | – | – | – | – | – | – | –
CCn1c(-c2c(F)cc(F)cc2F)c(C(C)(F)C(C)C)cc(Cl)c1=O (racemic) [compound 166] | H (more than 50% control value) | H (more than 50% control value) | H (more than 50% control value) | H (more than 50% control value) | H (more than 50% control value) | H (more than 50% control value) | H (more than 50% control value) | H (more than 50% control value) | – | – | – | – | – | – | –
CCn1c(-c2c(F)cc(OC)cc2F)c(C(C)(F)C(C)C)cc(Cl)c1=O (racemic) [compound 167] | H (more than 50% control value) | H (more than 50% control value) | H (more than 50% control value) | H (more than 50% control value) | H (more than 50% control value) | H (more than 50% control value) | H (more than 50% control value) | H (more than 50% control value) | – | – | – | – | – | – | –
CCn1c(-c2c(F)cc(F)cc2F)c(C(OC)C(C)(C)C)cc(Cl)c1=O (racemic) [compound 168] | H (more than 50% control value) | H (more than 50% control value) | L (50% or less control value) | L (50% or less control value) | H (more than 50% control value) | H (more than 50% control value) | L (50% or less control value) | H (more than 50% control value) | – | – | – | – | – | – | –
CCCc1ccc(=O)n(C)c1-c1ccc(OC)cc1C [compound 425] | – | – | – | – | – | – | – | – | H (more than 50% control value) | H (more than 50% control value) | L (50% or less control value) | L (50% or less control value) | L (50% or less control value) | – | –
C=Cc1cc(Cl)c(=O)n(CC)c1-c1c(F)cc(F)cc1F [compound 517] | – | – | – | – | – | – | – | – | L (50% or less control value) | H (more than 50% control value) | L (50% or less control value) | H (more than 50% control value) | H (more than 50% control value) | – | –
CCn1c(-c2c(F)cc(F)cc2F)c(C(C)OC)cc(Cl)c1=O (stereo not shown) [compound 519] | – | – | – | – | – | – | – | – | H (more than 50% control value) | H (more than 50% control value) | L (50% or less control value) | H (more than 50% control value) | H (more than 50% control value) | H (more than 50% control value) | H (more than 50% control value)
